Our source for the IC50 values is PMC3445454, “Broad and Cross-Clade CD4^+ T-Cell Responses Elicited by a DNA Vaccine Encoding Highly Conserved and Promiscuous HIV-1 M-Group Consensus Peptides” (PLoS ONE, 2012).

For orientation: pIC50 means the negative decadic logarithm of the IC50, by convention in mol/L. A high value points to a small IC50.

Substitutions are numbered along the chain they refer to. pIC50: −log10 of the molar value. Read-outs that look alike come from different tables or passages of the source. Ends that are not written are not given here. Where only a bound is given, the exact number is not on record here.

What all share (experiment): biochemical
In test [1] the target is HLA-DR DRB4*01:01 (Homo sapiens, UniProt P01903+P13762, G164S). Format: binding. Conditions: for IC50: read-out: Binding capacity/IC50 (nM) DRB4*01:01.
Test [2] addresses T1, HLA-DP DPA1*02:01/DPB1*14:01 (Homo sapiens, UniProt P04440+P20036, A65V/A84D/A85E/E86D/F191V/F38H/G113D/G114E/G40L/I94L/K142R/L158P/L37V/M105V/M116V/M62Q/P115A/Q81R/R125K/T114A/T199I/T259P).
T1 sequence (P20036 29-260 A42M/M62Q/Q81R/T114A/K142R/L158P/F191V/T259P): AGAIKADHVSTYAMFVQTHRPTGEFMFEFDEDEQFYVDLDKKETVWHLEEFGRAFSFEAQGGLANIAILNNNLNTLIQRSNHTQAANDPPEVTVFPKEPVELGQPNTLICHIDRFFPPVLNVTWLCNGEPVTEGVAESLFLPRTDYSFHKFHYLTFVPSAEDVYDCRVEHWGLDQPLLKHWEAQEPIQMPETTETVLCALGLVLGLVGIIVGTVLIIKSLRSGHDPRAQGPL
T1 sequence (P04440 30-258 L37V/F38H/G40L/A65V/A84D/A85E/E86D/I94L/M105V/G113D/G114E/P115A/M116V/R125K/T199I/R223Q): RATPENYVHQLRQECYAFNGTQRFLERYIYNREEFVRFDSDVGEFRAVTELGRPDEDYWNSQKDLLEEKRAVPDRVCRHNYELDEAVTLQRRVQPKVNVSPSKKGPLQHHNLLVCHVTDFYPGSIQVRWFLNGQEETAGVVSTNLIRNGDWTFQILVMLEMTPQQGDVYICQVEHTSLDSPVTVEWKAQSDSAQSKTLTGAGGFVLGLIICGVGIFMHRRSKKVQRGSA
In kind it is binding. Conditions: for IC50: read-out: Binding capacity/IC50 (nM) DPA1*02:01 DPB1*14:01.

Test [3] concerns the target T2, HLA-DP DPA1*01:03/DPB1*03:01 (Homo sapiens, UniProt P04440+P20036, A65V/A84D/A85E/E86D/F38Y/G113D/G114E/G40L/I94L/L37V/M105V/M116V/P115A/R125K/T199I).
T2 sequence (P20036 29-260): T1 sequence (P20036 29-260 A42M/M62Q/Q81R/T114A/K142R/L158P/F191V/T259P) with M14A, Q34M, R53Q, A86T, R114K, P130L, V163F, P231T
T2 sequence (P04440 30-258 L37V/F38Y/G40L/A65V/A84D/A85E/E86D/I94L/M105V/G113D/G114E/P115A/M116V/R125K/T199I): T1 sequence (P04440 30-258 L37V/F38H/G40L/A65V/A84D/A85E/E86D/I94L/M105V/G113D/G114E/P115A/M116V/R125K/T199I/R223Q) with H9Y, Q194R
Format: binding. Conditions: for IC50: read-out: Binding capacity/IC50 (nM) DPA1*01:03 DPB1*03:01.

In test [4] the target is HLA-DP DPA1*03:01/DPB1*04:02 (Homo sapiens, UniProt P04440+P20036, A42M/A65V/A84D/A85E/L207M/L97S).
Test [5] addresses T3, HLA-DP DPA1*02:01/DPB1*05:01 (Homo sapiens, UniProt P04440+P20036, A65V/A84E/F191V/F64L/G113D/G114E/K142R/L158P/M116V/M62Q/P115A/Q81R/R125K/T114A/T199I/T259P/V234M).
T3 sequence (P20036 29-260 A42M/M62Q/Q81R/T114A/K142R/L158P/F191V/T259P): T1 sequence (P20036 29-260 A42M/M62Q/Q81R/T114A/K142R/L158P/F191V/T259P)
T3 sequence (P04440 30-258 F64L/A65V/A84E/G113D/G114E/P115A/M116V/R125K/T199I/V234M): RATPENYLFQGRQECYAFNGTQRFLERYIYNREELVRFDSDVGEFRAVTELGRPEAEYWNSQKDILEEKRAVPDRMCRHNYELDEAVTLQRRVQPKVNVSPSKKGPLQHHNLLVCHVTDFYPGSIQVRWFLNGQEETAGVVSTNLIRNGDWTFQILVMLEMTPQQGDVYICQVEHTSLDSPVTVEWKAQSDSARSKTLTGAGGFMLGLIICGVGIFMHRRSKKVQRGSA
Format: binding. Conditions: for IC50: read-out: Binding capacity/IC50 (nM) DPA1*02:01 DPB1*05:01.

The target in test [6] is HLA-DR DRB1*09:01 (Homo sapiens, UniProt P01903+P01911, A100R/A103E/D57H/D86V/F55Y/F60I/F76Y/I96F/K127E/L162R/M171V/P40D/Q125H/Q99R/R33Q/R42F/S133A/S66N/T210M/V115G/W38K/Y107V/Y59G/Y89S). In kind it is binding. Conditions: read-out: Binding capacity/IC50 (nM) DRB1*09:01.
Test [7] has as its target HLA-DR DRB1*08:02 (Homo sapiens, UniProt P01903+P01911, A100R/A103L/A169T/F76Y/H45Y/I96F/K41T/L162R/M171V/P40S/Q125H/Q178H/Q39Y/Q99D/R218S/R42G/S66Y/V115G/W38E). Format: binding. Conditions: read-out: Binding capacity/IC50 (nM) DRB1*08:02.
The target in test [8] is HLA-DR DRB1*03:01 (Homo sapiens, UniProt P01903+P01911, A100K/A102G/A103R/A169T/F55Y/I96L/K41T/L162R/M171V/P40S/Q125H/Q178H/Q39Y/R42S/S66N/T106N/T262R/W38E/Y61H). Format: binding. Conditions: read-out: Binding capacity/IC50 (nM) DRB1*03:01.
The target in test [9] is HLA-DR DRB5*01:01 (Homo sapiens, UniProt P01903+Q30154). Format: binding. Conditions: read-out: Binding capacity/IC50 (nM) DRB5*01:01.
The target in test [10] is HLA-DR DRB1*12:01 (Homo sapiens, UniProt P01903+P01911, A100R/A169T/D57E/D86V/F55L/H45Y/K41T/L162R/M171V/P40S/Q125H/Q178H/Q39Y/Q99D/R42G/S66L/T262R/V114A/V67L/W38E/Y59H/Y61H/Y89S). In kind it is binding. Conditions: read-out: Binding capacity/IC50 (nM) DRB1*12:01.
Test [11] addresses HLA-DR DRB3*01:01 (Homo sapiens, UniProt P01903+P79483). Format: binding. Conditions: for IC50: read-out: Binding capacity/IC50 (nM) DRB3*01:01.

Turning to LNKIVRMYSPVSILDI-NH2 [p24(138-153)], the IC50 was determined as 25 nM in test [1]; 16 nM in test [2]; 16 nM in test [3]; 220 nM in test [5]; 36 nM in test [6]; 3.1 nM in [7]. The compound further gave a pIC50 in [4] of 9.00.

Take YAKMRSAHTNDVKQL-NH2 [RT(354-368)]: the IC50 in test [1] is 1440 nM; in [8], 7100 nM; in [9] it was 80 nM; in test [10], 4840 nM; in test [5], 2190 nM; in test [6], 66 nM. For the same compound, the IC50 in test [7] was 2.1 nM. The pIC50 in test [2] is 6.04; in test [3], 4.92; in test [4] it was 5.16.

For the compound `CC[C@H](C)[C@H](NC(=O)[C@H](Cc1ccc(O)cc1)NC(=O)CNC(=O)[C@H](CO)NC(=O)[C@H](C)NC(=O)[C@@H](NC(=O)[C@H](Cc1c[nH]cn1)NC(=O)[C@@H](NC(=O)[C@H](C)NC(=O)[C@@H](NC(=O)[C@H](CC(C)C)NC(=O)[C@@H](NC(=O)[C@@H](NC(=O)[C@H](CCCCN)NC(=O)CNC(=O)[C@@H](N)CCC(=O)O)[C@@H](C)CC)[C@@H](C)CC)C(C)C)C(C)C)C(C)C)C(=O)N[C@@H](CCC(=O)O)C(N)=O` [integrase(69-85)], the pIC50 is 7.25 in [1] and 6.67 in test [4]. For the same compound, the IC50 in test [8] came to 7940 nM; in [2], 1370 nM; in test [3], 1990 nM; in test [9], 523 nM; in [10], 2940 nM; in [11], 624 nM. Besides, the results for the IC50 in [5], in test [6] and in [7] were 2710 nM, 58 nM and 11 nM, respectively.

For the compound `CC[C@H](C)[C@H](NC(=O)CNC(=O)[C@H](CCCCN)NC(=O)[C@H](Cc1c[nH]cn1)NC(=O)[C@H](C)NC(=O)[C@@H]1CCCN1C(=O)[C@@H](NC(=O)[C@H](Cc1c[nH]c2ccccc12)NC(=O)[C@H](CO)NC(=O)[C@H](CC(C)C)NC(=O)[C@H](Cc1ccc(O)cc1)NC(=O)[C@@H](NC(=O)[C@H](CCCCN)NC(=O)[C@H](CCC(=O)O)NC(=O)[C@@H](N)CCCCN)C(C)C)C(C)C)C(=O)NCC(=O)NCC(=O)N[C@@H](CC(N)=O)C(=O)N[C@@H](CCC(=O)O)C(N)=O` [RT(528-546)], the IC50 in test [1] is 57 nM; in test [8], 612 nM; in [9] it was 16 nM; in test [10], 2100 nM; in test [5], 3560 nM; in test [6] it was 33 nM. Further, the pIC50 was 5.31 in test [2], 7.12 in [3], 6.82 in test [4] and 6.24 in test [11].

For the compound DEELLKAVRIIKILYQSNP-NH2 [rev(9-27)], the IC50 worked out at 632 nM in test [8]; 710 nM in test [2]; 466 nM in test [3]; 66 nM in test [10]; 978 nM in test [11]; 370 nM in [5]. Besides, the IC50 in test [6] worked out at 124 nM; in test [7] it was 9.5 nM. For the same compound, in [4], the pIC50 was 8.24.

For `CC[C@H](C)[C@H](NC(=O)[C@@H]1CCCN1C(=O)[C@H](CCC(=O)O)NC(=O)[C@@H](N)CCCCN)C(=O)N[C@H](C(=O)NCC(=O)N[C@@H](C)C(=O)N[C@@H](CCC(=O)O)C(=O)N[C@H](C(=O)N[C@@H](Cc1ccccc1)C(=O)N[C@@H](Cc1ccc(O)cc1)C(=O)N[C@H](C(=O)N[C@@H](CC(=O)O)C(=O)NCC(=O)N[C@@H](C)C(N)=O)C(C)C)[C@@H](C)O)C(C)C` [RT(431-445)], the IC50 in test [1] is 243 nM; in test [9] it was 148 nM; in test [10], 293 nM; in [5], above 30000 nM; in test [6], 23 nM; in test [7], 19 nM. For the same compound, the pIC50 is 5.87 in test [2], 4.55 in [3], 6.88 in test [4] and 7.89 in test [11].

In the case of IVALIIAIVVWTIV-NH2 [vpu(13-26)], the IC50 is above 30000 nM in [8]; above 30000 nM in [2]; 2580 nM in test [3]; above 30000 nM in test [9]; 12700 nM in [10]; above 30000 nM in test [5]. The figures for the IC50 in test [6] and in test [7] were 6640 nM and 765 nM, respectively. Further, the negative-log IC50 (pIC50) in [4] is 5.89.

For “NYPIVQNLQGQMVHQAISPR-NH2 [p17(131-132)/p24(1-18)]”, the IC50 turned out to be 131 nM in test [1]; 2990 nM in [2]; 344 nM in [3]; 940 nM in test [10]; 248 nM in [6]; 71 nM in test [7]. The pIC50 in [4] was 6.32; in test [11], 6.29; in test [5] it was 5.60.
